In patent publication US20230295201A1 (Gilead Sciences, Inc., priority 2020, published 2023):
Read-outs that look alike come from different tables or passages of the source.

Assays:
Assay type in all cases: cell-based
RSV strain A2 = assay: RSV HEp-2 EC50 (infectious cytopathic cell protection assay); settings: HEp-2 cells, RSV A2, 4 days, read-out: RSV HEp-2 EC50
Procedure, shortened: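 Percent inhibition of RSV-induced cytopathic effect came from remaining cell viability (CellTiter-Glo luminescence) after 4 days at 37° C. Compounds in 3-fold serial dilutions were exposed to an infectious mix of titered A2 virus and HEp-2 cells at 50,000/ml, with 0% and 100% inhibition control standards.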

RSV A2 = assay: RSV NHBE EC50 (RSV A2 antiviral assay in normal human bronchial epithelial cells); settings: NHBE cells, RSV A2, 4 days, read-out: RSV NHBE EC50
HRV16 = HRV16 HELA EC50 (cytopathic effect in H1-HeLa cells)
Procedure, shortened: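 Read-out is luminescent cell viability (CellTiter-Glo) after 96 h of infection at 33 °C, scaled between uninfected and infected-untreated wells. Before infection with titrated virus, compounds went onto H1-HeLa cells as triplicate 3-fold dilution series.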

DENV2 replicon = assay: DENV-2 Huh-7 Rep EC50 (replicon luminescence); settings: read-out: DENV-2 Huh-7 Rep EC50
Procedure, shortened: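 EC50 derived from luminescence dose-response, normalised to DMSO-only 0% inhibition wells, after 1.5 h with EnduRen substrate. Compounds were first exposed for 48 h at 37° C to DENV2 replicon Huh-7 cells (5,000/well).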

[1] = human respiratory syncytial virus, HEp-2, 96 h
[2] = human respiratory syncytial virus, NHBE, 96 h
[3] = 96 h, H1-HeLa cells, 33° C., read-out: HRV16 HELA EC50
[4] = Dengue virus, DENV2, Huh-7, 48 h, Huh-7 replicon cells, 48 hours
[5] = H1-HeLa cells, 96 h, 33° C.; read-out: HRV16 HELA EC50
[6] = human respiratory syncytial virus, 96 h
[7] = Dengue virus, DENV2, Huh-7, 48 h

Row | SMILES | EC50 (RSV strain A2; [1]) | EC50 (RSV A2; [2]) | EC50 (HRV16; [3]) | EC50 (DENV2 replicon; [4]) | EC50 (RSV strain A2) | EC50 (RSV A2) | EC50 (HRV16; [5]) | EC50 (DENV2 replicon; Huh-7 replicon cells, 48 hours) | EC50 (RSV strain A2; [6]) | EC50 (RSV A2; [6]) | EC50 (DENV2 replicon; [7])
1 | CCOC(=O)[C@H](C)N[P@](=O)(OC[C@@]1(C#N)O[C@@H](c2ccc3c(N)ncnn23)[C@H](O)[C@@H]1O)Oc1ccccc1 [Example 29, Ethyl ((S)-(((2R,3S,4R,5S)-5-(4-aminopyrrolo[2,1-f][1,2,4]triazin-7-yl)-2-cyano-3,4-dihydroxytetrahydrofuran-2-yl)methoxy)(phenoxy)phosphoryl)-L-alaninate] | 91 nM | 932 nM | 678 nM | 36100 nM | – | – | – | – | – | – | –
2 | COC(=O)[C@H](C)N[P@](=O)(OC[C@@]1(C#N)O[C@@H](c2ccc3c(N)ncnn23)[C@H](O)[C@@H]1O)Oc1ccccc1 [Example 52, methyl ((S)-(((2R,3S,4R,5S)-5-(4-aminopyrrolo[2,1-f][1,2,4]triazin-7-yl)-2-cyano-3,4-dihydroxytetrahydrofuran-2-yl)methoxy)(phenoxy)phosphoryl)-L-alaninate] | 94 nM | 252 nM | 1250 nM | > 47000 nM | – | – | – | – | – | – | –
3 | CCC(CC)COC(=O)[C@@H](C)NP(=O)(OC[C@@]1(C#N)O[C@@H](c2ccc3c(N)ncnn23)[C@H](O)[C@@H]1O)Oc1ccccc1 (stereo partly drawn) [Example 82, (2R)-2-ethylbutyl 2-(((((2R,3S,4R,5S)-5-(4-aminopyrrolo[2,1-f][1,2,4]triazin-7-yl)-2-cyano-3,4-dihydroxytetrahydrofuran-2-yl)methoxy)(phenoxy)phosphoryl)amino)propanoate] | 2510 nM | 3000 nM | 9270 nM | > 50000 nM | – | – | – | – | – | – | –
4 | C[C@H](N[P@](=O)(OC[C@@]1(C#N)O[C@@H](c2ccc3c(N)ncnn23)[C@H](O)[C@@H]1O)Oc1ccccc1)C(=O)OCC(C)(C)C [Example 94] | – | – | – | – | 100 nM | 118 nM | 209 nM | 2340 nM | – | – | –
5 | CCCCCCCCCCCCCCCCCCOC[C@H](COP(=O)(O)OC[C@@]1(C#N)O[C@@H](c2ccc3c(N)ncnn23)[C@H](O)[C@@H]1O)OCc1ccccc1 [Example 96, ((2R,3S,4R,5S)-5-(4-aminopyrrolo[2,1-f][1,2,4]triazin-7-yl)-2-cyano-3,4-dihydroxytetrahydrofuran-2-yl)methyl ((R)-2-(benzyloxy)-3-(octadecyloxy)propyl) hydrogen phosphate] | – | – | – | – | – | – | 9350 nM | – | 254 nM | 441 nM | > 100000 nM
6 | CCC(CC)OC(=O)[C@H](C)NP(=O)(OC[C@@]1(C#N)O[C@@H](c2ccc3c(N)ncnn23)[C@H](O)[C@@H]1O)Oc1ccccc1 (stereo partly drawn) [Example 101, (2S)-pentan-3-yl 2-(((((2R,3S,4R,5S)-5-(4-aminopyrrolo[2,1-f][1,2,4]triazin-7-yl)-2-cyano-3,4-dihydroxytetrahydrofuran-2-yl)methoxy)(phenoxy)phosphoryl)amino)propanoate] | 1740 nM | 1240 nM | 3130 nM | > 100000 nM | – | – | – | – | – | – | –
7 | CCCCCCCCCCCCCCCCOCCCOP(=O)(O)OC[C@@]1(C#N)O[C@@H](c2ccc3c(N)ncnn23)[C@H](O)[C@@H]1O [Example 149, ((2R,3S,4R,5S)-5-(4-aminopyrrolo[2,1-f][1,2,4]triazin-7-yl)-2-cyano-3,4-dihydroxytetrahydrofuran-2-yl)methyl (3-(hexadecyloxy)propyl) hydrogen phosphate] | – | – | – | – | – | – | > 50000 nM | – | 925 nM | > 891 nM | > 50000 nM
8 | CCCCCCCCCCCCOC(=O)[C@H](C)NP(=O)(OC[C@@]1(C#N)O[C@@H](c2ccc3c(N)ncnn23)[C@H](O)[C@@H]1O)Oc1ccccc1 (stereo partly drawn) [Example 191, dodecyl ((((2R,3S,4R,5S)-5-(4-aminopyrrolo[2,1-f][1,2,4]triazin-7-yl)-2-cyano-3,4-dihydroxytetrahydrofuran-2-yl)methoxy)(phenoxy)phosphoryl)-L-alaninate] | 2380 nM | 35 nM | 3400 nM | 61300 nM | – | – | – | – | – | – | –
9 | CCCCCCOC(=O)[C@H](C)NP(=O)(OC[C@@]1(C#N)O[C@@H](c2ccc3c(N)ncnn23)[C@H](O)[C@@H]1O)Oc1ccccc1 (stereo partly drawn) [Example 192, hexyl ((((2R,3S,4R,5S)-5-(4-aminopyrrolo[2,1-f][1,2,4]triazin-7-yl)-2-cyano-3,4-dihydroxytetrahydrofuran-2-yl)methoxy)(phenoxy)phosphoryl)-L-alaninate] | 194 nM | 21 nM | 342 nM | 15900 nM | – | – | – | – | – | – | –
10 | C[C@H](NP(=O)(OC[C@@]1(C#N)O[C@@H](c2ccc3c(N)ncnn23)[C@H](O)[C@@H]1O)Oc1cccc2ccccc12)C(=O)OC1CCCCC1 (stereo partly drawn) [Example 203, cyclohexyl ((((2R,3S,4R,5S)-5-(4-aminopyrrolo[2,1-f][1,2,4]triazin-7-yl)-2-cyano-3,4-dihydroxytetrahydrofuran-2-yl)methoxy)(naphthalen-1-yloxy)phosphoryl)-L-alaninate] | 31 nM | 18 nM | 72 nM | 4460 nM | – | – | – | – | – | – | –
